Assay results: PubChem BioAssay (NCI)
Where “and” joins values, the source holds several entries; their conditions need not be identical. Identical values can stand only once.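 A five-concentration, 48-hour dose response in 96-well plates underlies each endpoint, interpolated linearly between surrounding concentrations. GI50 is the concentration that inhibits growth by half. TGI denotes the concentration required for complete inhibition of growth.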

How the values were obtained:
Experiment in all cases: inhibition of tumour cell growth, NCI panel, 48 h
M19-MEL melanoma = system: M19-MEL melanoma
EKVX NSCLC = system: EKVX NSCLC
HCC-2998 colon = system: HCC-2998 colon
NCI-H23 lung = system: NCI-H23 lung
DMS 273 small cell lung = system: DMS 273 small cell lung
NCI-H460 lung = system: NCI-H460 lung
HOP-62 NSCLC = system: HOP-62 NSCLC
SF-295 CNS = system: SF-295 CNS
NCI/ADR-RES ovarian = system: NCI/ADR-RES ovarian

SMILES | TGI (M19-MEL melanoma) [µM] | TGI (EKVX NSCLC) [µM] | TGI (HCC-2998 colon) | TGI (NCI-H23 lung) | TGI (DMS 273 small cell lung) [µM] | TGI (NCI-H460 lung) | TGI (HOP-62 NSCLC) [µM] | TGI (SF-295 CNS) [µM] | GI50 (NCI-H23 lung) | GI50 (NCI-H460 lung) | TGI (NCI/ADR-RES ovarian) | GI50 (HOP-62 NSCLC) | GI50 (EKVX NSCLC) [µM] | GI50 (HCC-2998 colon) [µM] | GI50 (NCI/ADR-RES ovarian) [µM] | GI50 (SF-295 CNS) [µM]
O=C(O)C(Cc1ccccc1)N=Cc1nc(-c2ccccc2)oc1O (configuration not stated) | > 100 | > 100 | > 100 µM | > 100 µM | > 100 | > 100 µM | > 100 | > 100 | – | – | – | – | – | – | – | –
NCCCNCc1c2ccccc2c(CNCCCN)c2ccccc12 | 35.4 | 43.5 | 30.9 µM | 49.7 µM | – | 32.6 µM | 62.6 | 56.2 | – | – | – | – | – | – | – | –
C/C(=N\NC(=O)c1ccccc1O)c1c(O)cc(C)oc1=O | > 100 | 88.6 | > 100 µM | > 100 µM | – | > 100 µM | > 100 | > 100 | – | – | – | – | – | – | – | –
C=CCC1(CN(C)C)CC/C(=C\c2cc(OC)c(OC)c(OC)c2)C1=O (configuration not stated) | > 100 | 61.4 | 35.5 µM | > 100 µM | – | 36.9 µM | > 100 | 92.8 | – | – | – | – | – | – | – | –
Oc1cccc2cccnc12 | – | > 100 | 28 µM and > 100 µM and 47.9 µM | 18.9 µM and > 100 µM | 7.98 | 23.4 µM and > 100 µM and 21.9 µM | > 100 | > 100 | 2.49 µM and 13.4 µM and 3.93 µM | 1.6 µM and 3.32 µM and 3.85 µM | 35.4 µM and > 100 µM and > 32 µM | 4.47 µM and 5.39 µM and 13.5 µM | – | – | – | –
CCCC(=O)Oc1ccc(/C=N/NC(N)=S)nc1 | > 100 | > 100 | > 100 µM | > 100 µM | > 100 | > 100 µM | > 100 | > 100 | – | – | – | – | – | – | – | –
C#Cc1cccc(Nc2nc(C)nc3cc(NC(=O)CCl)ccc23)c1 | – | 7.62 | 7.76 µM | 7.03 µM | – | 7.19 µM | 7.85 | 6.86 | 2.35 µM | 3.23 µM | 12.5 µM | 3.65 µM | 3.13 | 3.79 | 3.42 | 3.39
COc1ccc2cc(C(=O)N3CCC([C@@H](C)C(=O)NCc4ccc5c(c4)OCO5)CC3)[nH]c2c1 | – | > 100 | > 100 µM | > 100 µM | – | > 100 µM | > 100 | > 100 | > 100 µM | > 100 µM | > 100 µM | 45.9 µM | > 100 | > 100 | > 100 | 68.5
COc1cc(OCCCN2CCCC2)ccc1Nc1ncc(Cl)c(Nc2ccccc2P(C)(C)=O)n1 | – | > 20.5 | 25.7 µM | 13.2 µM | – | 12 µM | 12.5 | 14.2 | 1.98 µM | 2.47 µM | > 77.4 µM | 2.11 µM | 0.828 | 2.65 | 12.6 | 2.7
CCCCCCCC(=O)Nc1nc2[nH]c(CN3CCN(Cc4cccc(I)c4)CC3)c(CN3CCN(Cc4cccc(I)c4)CC3)c2c(=O)[nH]1 | – | 1.67 | 1.54 µM | 1.86 µM | – | 1.76 µM | 2.06 | 1.55 | 0.92 µM | 0.925 µM | 1.74 µM | 0.936 µM | 0.835 | 0.823 | 0.882 | 0.843
N[C@@H](Cc1c[nH]c2ccccc12)C(=O)NC1CCN(Cc2c[nH]c3ccc(Cl)cc23)CC1 | – | 25.1 | 13.4 µM | 30.7 µM | – | 16 µM | 24.8 | 20.1 | 15.3 µM | 4.71 µM | > 100 µM | 11 µM | 10.9 | 3.3 | 65.3 | 6.34
CC(=O)N(N=O)c1ccc(N(N=O)C(C)=O)cc1 | > 100 | – | > 100 µM | > 100 µM | > 100 | > 100 µM | > 100 | > 100 | – | – | – | – | – | – | – | –
CO[C@H]1/C=C/O[C@@]2(C)Oc3c(C)c(O)c4c(O)c(c(/C=N/N5C(C)CN(Cc6ccc(C#N)cc6)CC5C)c(O)c4c3C2=O)NC(=O)/C(C)=C\C=C\[C@H](C)[C@H](O)[C@@H](C)[C@@H](O)[C@@H](C)[C@H](OC(C)=O)[C@@H]1C (some centres not stated) | – | 39.4 | 17.6 µM | 30.7 µM | – | 14.1 µM | 20.6 | 12.2 | 9.67 µM | 5.76 µM | 46 µM | 9.76 µM | 4.26 | 7.87 | 11.7 | 2.88
C[C@]12CC[C@@H]3c4ccc(O)cc4CC[C@H]3[C@@H]1CC(Cc1ccccc1)(Cc1ccccc1)C2=O | – | 24.7 | 14.2 µM | 28.2 µM | – | 38.1 µM | 32.9 | 49.1 | 14.3 µM | 12.1 µM | 30.7 µM | 17.7 µM | 10.9 | 4.04 | 16.5 | 21.4
NC(=O)c1ccc(I)c([N+](=O)[O-])c1 | – | > 65 | > 100 µM | > 100 µM | – | > 100 µM | > 100 | > 100 | 76.1 µM | > 100 µM | > 100 µM | > 100 µM | 27.1 | 50.4 | > 100 | > 92.7
